For data set [1], the target named is T1, N-SH2 domain of SHP2 (Homo sapiens, UniProt Q06124).
T1 construct: constructs of the N-SH2 (residues 2–111), C-SH2 (residues 109–217), and PTP (residues 212–528) domains; made in house; host or cells: Escherichia coli (DE3) Rosetta2
T1 sequence (Q06124 2-111): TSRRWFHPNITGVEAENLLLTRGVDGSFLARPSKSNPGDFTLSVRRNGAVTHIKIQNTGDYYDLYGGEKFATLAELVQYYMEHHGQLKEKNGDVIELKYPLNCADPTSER
Description: Fluorescence anisotropy displacement assay. The format is binding. The conditions noted are these: 1.0 nM CF-P9, 40 nM N-SH2; compared with P9.
Description: The displacement assays were carried out with the same experimental settings. In this case, the labeled peptide–protein complex was titrated with increasing amounts of the unlabeled peptide, following the decrease in anisotropy. Measurements were carried out at the same CF-peptide concentration used for the corresponding binding experiments. With regard to the protein concentration, a compromise between two requirements is needed.[90] […] Between three and five replicates were performed (the specific numbers are indicated in the figures reporting the binding experiments).
Here, [P]T and [L]T are the total protein and ligand concentrations. […]
(§2) The affinity of unlabeled peptides was determined by competition experiments, in which a sample with fixed total protein and fluorescently labeled peptide concentrations ([ 𝑃]T and [𝐿]T) was titrated with the unlabeled peptide, causing displacement of the flu orescent peptide and a decrease in
half of the bound fluorescent analog) was determined, interpolating the displacement curve using a phenomenological Hill equation:3 […]
Successively, the dissociation constant of the unlabeled peptide (𝐾𝑑𝑢) was calculated from the know values of EC50, Kd, [𝑃]𝑇 and [𝐿]𝑇, as described here below. […]
In this way, 𝐾𝑑𝑢 is expressed as a function of the known quantities EC50, Kd, [𝑃]T and [𝐿]T, without

The nature of data set [2]: Peptide stability in DMEM. Type of data set: in vitro ADME. The conditions noted are these: 3 days; data not shown. Here is the method: (§1) The peptides were dissolved in DMSO (5 mg/mL). In Eppendorf tubes, 1 mL of HEPES buffer (25 mM, pH 7.6) was temperature equilibrated at 37 °C before the addition of 250 μL of human serum and 20 μL of a peptide solution; the reaction was followed for 24 h. At fixed intervals, 100 μL of the solution was withdrawn and added to 200 μL of absolute ethanol. These samples were kept on ice for 15 min and then centrifuged at 13000 rpm for 5 min; the supernatant solutions were analyzed by HPLC and HPLC-MS with a 20% to 60% B gradient in 20 min to follow the reaction. In parallel, samples containing peptide, buffer, and ethanol only were analyzed. A degradation resistance test was also conducted in DMEM (Dulbecco’s modified Eagle’s medium). The experimental conditions are similar to those described above; the reaction was followed for 72 h. The enzymatic degradation resistance tests were followed by HPLC using a 5% to 50% B gradient over 20 min.

The nature of data set [3]: Peptide stability in human serum (HPLC). Type of data set: in vitro ADME. The conditions noted are these: in 3 h, positive control. The protocol:
as §1

Data set [4] concerns the target T1, N-SH2 domain of SHP2. The data set can be described thus: Fluorescence anisotropy direct binding assay. The conditions noted are these: for standard free energy of binding: assuming a 1 M standard state; for Kd: direct titration of labeled peptide.
Description: Anisotropy measurements were carried out using a Horiba Fluoromax 4 spectrofluorimeter. For the binding assays, the requested peptide amount (1 or 0.1 nM) was diluted in a buffer (10 mM HEPES, 150 mM NaCl, 1 mM EDTA, and 1 mM TCEP, fluorescence buffer henceforth) and its anisotropy signal was recorded. The peptide was then titrated with increasing protein amounts, until the anisotropy signal reached a plateau at its maximum value, or up to a protein concentration at which protein aggregation and consequent light scattering affected the anisotropy values (usually >1 μM). The measurements of CF-labeled peptides were carried out using an excitation wavelength of 470 nm and collecting the anisotropy values at an emission wavelength of 520 nm. A 495 nm emission filter was used. […] Between two and six replicates were performed (the specific numbers are indicated in the figures and in the table reporting the binding experiments).
Analysis of binding curves
fractions correspond to the population of the two states.
𝑟 = 𝑥𝐵𝑟𝑚𝑎𝑥 + (1 − 𝑥𝐵)𝑟0 (1)
Here, r, r0 and rmax are the anisotropy values at a given protein concentration, in the absence of protein and when the peptide is completely bound, respectively, and 𝑥𝐵 is the molar fraction of bound peptide. This last quantity, therefore, can be derived from the anisotropy values as follows:
Kd values were obtained fitting the data with the following equation, 2 which avoids the need for the commonly used (but often unjustified) approximation of the concentration of unbound protein with
Here, [P]T and [L]T are the total protein and ligand concentrations. When allowed by the experimental conditions (i.e. when [𝐿]𝑇 ≪ 𝐾𝑑), this equation was simplified by assuming [𝑃]𝑇 ≅
as §2
half of the bound fluorescent analog) was determined, interpolating the displacement curve using a phenomenological Hill equation:3
where [I]T is the total concentration of the peptide causing the displacement, and rfin is the anisotropy corresponding to total displacement, while in this case r0 is the starting anisotropy, in the absence of displacing peptide.
Successively, the dissociation constant of the unlabeled peptide (𝐾𝑑𝑢) was calculated from the know values of EC50, Kd, [𝑃]𝑇 and [𝐿]𝑇, as described here below.
In the system where protein (P), ligand (L ) and a competitive inhibitor (I) are present, both L and I can form complexes with P (PL and PI, respectively). The following dissociation constants can be defined for the two binding equilibria:
Data set [5] addresses N-SH2 domain. Set-up: method as in ref 48 (a number printed in a supplementary file, which may have a reference list of its own: not looked up in the article's list). As to conditions: Radioactively labeled peptide; cited from earlier work.
In data set [6] the target is N-SH2 domain. Set-up: method as in ref 19 (a number printed in a supplementary file, which may have a reference list of its own: not looked up in the article's list). The conditions noted are these: Isothermal titration calorimetry; cited from earlier work.
Another data set deals with T2, SHP2Δ104 (Homo sapiens, UniProt Q06124).
T2 construct: the isolated PTP domain preceded by the C-SH2 domain (residues 105–528); made in house; host or cells: Escherichia coli (DE3) Rosetta2
T2 sequence (Q06124 105-528): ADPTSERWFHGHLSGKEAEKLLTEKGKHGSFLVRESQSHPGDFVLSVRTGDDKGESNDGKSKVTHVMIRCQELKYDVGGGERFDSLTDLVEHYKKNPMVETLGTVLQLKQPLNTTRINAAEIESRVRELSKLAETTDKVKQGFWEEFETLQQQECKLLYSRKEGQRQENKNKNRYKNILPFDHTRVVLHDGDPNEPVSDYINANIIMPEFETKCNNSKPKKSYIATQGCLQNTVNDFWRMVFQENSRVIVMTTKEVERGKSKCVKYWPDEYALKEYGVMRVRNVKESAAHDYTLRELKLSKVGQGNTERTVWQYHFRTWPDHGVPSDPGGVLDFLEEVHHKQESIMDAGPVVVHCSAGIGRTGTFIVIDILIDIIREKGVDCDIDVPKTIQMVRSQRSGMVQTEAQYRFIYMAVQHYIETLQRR
The data set can be described thus: Dephosphorylation of phosphopeptides, malachite green phosphatase assay. The format is biochemical. As to conditions: 100 μM phosphopeptide. Here is the method: The ability of SHP2 to dephosphorylate the phosphopeptides was evaluated through a malachite green phosphatase assay (PTP assay kit 1, Millipore). The BTAM peptide and the following monophosphorylated peptides derived from known SHP2 substrates were used for comparison: DKQVE-pY-LDLDL (GAB1Y657), EEENI-pY-SVPHD (p190A/RhoGAPY1105), and VDADE-pY-LIPQQ (EGFRY1016) (Primm). SHP2Δ104 (2.4 pmol) was incubated with each phosphopeptide at 100 μM (total volume of 25 μL) for different times. The reaction was stopped by adding 100 μL of a malachite green solution. After 15 min, the absorbance was read at 655 nm, using a microplate reader, and compared with a phosphate standard curve to determine the release of phosphate. Data obtained in the linear region of the curve were normalized to the reaction time (1 min). Each experiment was performed in duplicate.

Like-named read-outs stand apart in the source and are kept apart here. Where a SMILES comes first, the peptide text is derived from it. [ ]: non-standard residue; d: D form. The star is where a group is joined. 5FAM = O=C1OC2(c3ccc(O)cc3Oc3cc(O)ccc32)c2ccc(C(=O)*)cc21; pY = N[C@@H](Cc1ccc(OP(=O)(O)O)cc1)C(=O)O

For N-pY -IDLDL [P7], at N-SH2 domain of SHP2 [1], the “effect of shortening the sequence on affinity (displacement curves)” value was “drastic perturbation of the complex stability”.
For `CC[C@H](C)[C@H](NC(=O)[C@H](Cc1ccc(C(F)(F)P(=O)(O)O)cc1)NC(=O)[C@H](CC(N)=O)NC(=O)[C@H](CC(C)C)NC(=O)CNC(C)=O)C(=O)N[C@@H](CC(=O)O)C(=O)N[C@@H](CC(C)C)C(=O)N[C@@H](CC(=O)O)C(=O)N[C@@H](Cc1c[nH]c2ccccc12)C(N)=O` [OP, GLN- F2Pmp-IDLDW], the “stability in DMEM” value in data set [2] is on record as “stable”.
Take `CC[C@H](C)[C@H](NC(=O)[C@H](C)NC(=O)[C@H](CCCCN)NC(=O)CNC(=O)[C@H](Cc1ccc(O)cc1)NC(=O)[C@H](Cc1ccc(O)cc1)NC(=O)[C@H](CCCCN)NC(=O)[C@H](Cc1ccccc1)NC(=O)[C@@H](N)Cc1c[nH]c2ccccc12)C(=O)N[C@@H](Cc1ccc(O)cc1)C(=O)O` [XP] (H-WFKYYGKAIY-OH): the “degradation in human serum” value in data set [3] is on record as “totally degraded”.
As for `CC[C@H](C)[C@H](NC(=O)[C@H](Cc1ccc(OP(=O)(O)O)cc1)NC(=O)[C@H](CC(N)=O)NC(=O)[C@H](CC(C)C)NC(=O)CNC(=O)c1ccc2c(c1)C(=O)OC21c2ccc(O)cc2Oc2cc(O)ccc21)C(=O)N[C@@H](CC(=O)O)C(=O)N[C@@H](CC(C)C)C(=O)N[C@@H](CC(=O)O)C(=O)N[C@@H](CC(C)C)C(N)=O` [CF-P9, CF-GLN-pY -IDLDL] (5FAM-GLN[pY]IDLDL-NH2), at N-SH2 domain of SHP2 [4], the “standard free energy of binding” value was -9.94 ± 0.024 kcal/mol and the Kd came to 53 ± 2 nM.
As to SLN-pY-IDLDLVKD [IRS-1 pY1172], the results for the Kd on N-SH2 domain [5] and at N-SH2 domain [6] were 1000 to 10000 nM and 51 nM, respectively.
In the case of `CC[C@H](C)[C@H](NC(=O)[C@H](Cc1ccc(O)cc1)NC(=O)[C@H](CC(N)=O)NC(=O)[C@H](CC(C)C)NC(=O)CNC(=O)c1ccc2c(c1)C(=O)OC21c2ccc(O)cc2Oc2cc(O)ccc21)C(=O)N[C@@H](CC(=O)O)C(=O)N[C@@H](CC(C)C)C(=O)N[C@@H](CC(=O)O)C(=O)N[C@@H](CC(C)C)C(N)=O` [CF-P9Y0, CF-GLN- Y -IDLDL] (5FAM-GLNYIDLDL-NH2), the “affinity, times lower than the phosphorylated peptide” value at N-SH2 domain of SHP2 [4] (CF-P9Y0 vs CF-P9) was “approximately 100 times”. In addition, at N-SH2 domain of SHP2 [4], the “standard free energy of binding” value was -7.07 ± 0.048 kcal/mol and binding was put at a Kd of 6600 ± 600 nM.
Regarding `CC[C@H](C)[C@H](NC(=O)[C@H](Cc1ccc(OP(=O)(O)O)cc1)NC(=O)[C@H](CC(N)=O)NC(=O)[C@H](CC(C)C)NC(C)=O)C(=O)N[C@@H](CC(=O)O)C(=O)N[C@@H](CC(C)C)C(=O)N[C@@H](CC(=O)O)C(=O)N[C@@H](Cc1c[nH]c2ccccc12)C(N)=O` [P8W5, LN-pY -IDLDW], the “dephosphorylation by SHP2Δ104” value at SHP2Δ104 is listed as “dephosphorylation was indeed observed”.
Take `CC[C@H](C)[C@H](NC(=O)[C@H](Cc1ccc(OP(=O)(O)O)cc1)NC(=O)[C@H](CC(N)=O)NC(=O)[C@H](CC(C)C)NC(C)=O)C(=O)N[C@@H](CC(=O)O)C(=O)N[C@@H](CC(C)C)C(=O)N[C@@H](CC(=O)O)C(=O)N[C@@H](CC(C)C)C(N)=O` [P8, LN-pY -IDLDL] (Ac-LN[pY]IDLDL-NH2): the “effect of shortening the sequence on affinity (displacement curves)” value at N-SH2 domain of SHP2 [1] was “No significant loss of affinity”. Further, the “dephosphorylation by SHP2Δ104” value at SHP2Δ104 was “dephosphorylation was indeed observed”.
